US20220142991A1, “METHODS AND COMPOSITIONS FOR TREATMENT OF L YSOSOMAL STORAGE DISORDER” (CHILDREN'S HOSPITAL MEDICAL CENTER, priority 2019, published 2022)

Assays:
4L;C* mice [1] = assay: Lifespan (Kaplan-Meier survival) in 4L;C* nGD mouse model; format: in vivo; settings: rapamycin 6 mg/kg i.p. every 2 days from 2 weeks of age, untreated 59 days, buffer 60 days
Description: The 4L;C* mouse is a transgenic animal model that is viable and mimics neurological deficits analogous to subacute neuronopathic Gaucher disease (nGD). The 4L;C* mice used in this and other examples disclosed herein were generated as described in Sun et al., Hum Mol Genet. 2010 Mar. 15; 19(6): 1088-1097, the disclosure of which is incorporated herein in its entirety. In brief, saposin C deficient (C^−/−) mice were generated by introducing a Cys→Pro substitution in the saposin C region of prosaposin. […] Saposin C is an essential activator for GCase. GCase V394L (4L/4L) mice were generated by germ-line transmission of a missense point mutation in the GCase (GBA) locus encoding for V394L. Next, saposin C^−/− mice were cross-bred with point mutated GCase V394L homozygotes (4L/4L) to generate 4L/wt;C^−/+ mice. 4L;C* mice (4L/4L;C^−/−) were produced by intercrossing 4L/4L;C^+/− with 4L/4L;C^+/−. The strain background of 4L;C* was originally C57BL/6J/129SvEV and backcrossed into pure C57BL/6J strain for more than 12 generations.

4L;C* nBMT mice = assay: FACS analysis of donor-derived GFP+ migrated cells in brain after nBMT; format: in vivo, mouse; settings: 55 days of age
Procedure: Briefly, mice that express enhanced green fluorescent protein (GFP; C57BL/6 GFP/CD45.1) were used as bone marrow donors. Low-density bone marrow (LDBM) cells were harvested by flushing the hind-leg bones with Dulbecco's modified Eagle's medium (DMEM) containing 2% fetal calf serum (FCS) and 50 U penicillin/0.05 mg/mL streptomycin using a 23 G needle. The cells were passed through a 100 μm cell strainer. LDBM cells were isolated after density gradient centrifugation with Histopaque-1083. Viable cells were counted with trypan blue dye and resuspended in PBS containing 30 U/mL heparin. The recipient pups (˜3 days old of 4L;C or 4L;norm) were subjected to myelosuppressive conditioning with the chemotherapeutic agent busulfan by intraperitoneal injection at 20 mg/kg. Twenty-four hours later, the 4L;C and 4L;norm recipient pups then received about 1×10^6 GPF+ donor cells via injection into super-facial temple vein (nBMT). 4L;C nBMT mice were then given an i.p. injection of rapamycin or buffer every other days starting at 21 days of age. […] Multicolor FACS analysis was conducted as described above to analyze contribution of GFP+ migrated cells in microglia and subpopulations of leukocytes. FIG. 11A. The frequency of donor-derived GFP+ cells among different leukocyte populations in brain parenchyma was quantified, including CD45^+ cells, microglia, myeloid, lymphoid, macrophage and T cells. Table 1. In busulfan-conditioned mice, engraftment of GFP+ microglial cells was increased in 4L;C* mice compared to 4L normal mice, regardless of treatment with buffer or rapamycin. Table 1. […] FIG. 11B.

4L;C* mice [2] = assay: CD68 immunohistochemistry for activated microglia/macrophage in brain and spinal cord; format: in vivo, mouse
Description: CD68, a classic marker of activated microglia/macrophage (Korzhevskii et al., (2016) Neurosci Behav Physi 46, 284-290), was used to determine CNS inflammation by immunohistochemistry staining. […] FIG. 6A.

4L;C* mice [3] = assay: FACS analysis of microglia and leukocyte populations in brain; format: in vivo, mouse; settings: brain hemispheres
Description: Brain inflammation invariably results in a reshaping of the blood-borne leukocyte populations inhabiting the CNS. To elucidate the changes of resident immune cells (i.e., microglial cells) and infiltrated leukocytes in nGD brain and the effect rapamycin has on activation of immune cells and infiltration, flow cytometry was used to analyze different leukocyte populations in brain parenchyma, including CD45^+ cells, microglia, myeloid, lymphoid, macrophage and T cells. […] The hemispheres of the brain were separated, minced, and digested by incubation with […] collagenase IV for 30 min at 37° C. The resulting cell suspensions were then fractionated by density gradient separation using 25% Percoll® gradients at 520×g for 20 minutes. […] After removing myelin and top suspension layer, pelleted cells collected were then subjected to multicolor (5) fluorescence-activated cell sorting analysis (FACS) by co-staining with multiple antibodies that conjugated with various fluorochromes to identify microglia and subpopulations of leukocytes. FIG. 10A. […] FIG. 10B. […] FIG. 10B. […] FIG. 10B.
The frequency of microglia (CD45^intermediateCD11b^high) was increased in buffer-treated 4L;C* mice (1.9 fold) and decreased in rapamycin-treated 4L;C* mice (1.3-fold), which indicates reduced microgliosis in nGD brain. FIG. 10B. […] FIGS. 10C and 10D.

4L;C* mice [4] = assay: Fluoro-Jade C (FJC) staining for degenerating neurons in brain cryosections; settings: most brain regions, Day 55, vs buffer-treated 4L;C*
Procedure: To visualize degenerative neurons in nGD mice, brains were harvested from well-perfused rapamycin treated 4L;C* mice, buffer-treated 4L;C* mice, and 4L normal, untreated mice at age of Day 55. Sagittal brain cryosections (10 μm) were mounted on gelatin-coated slides, air-dried, and subjected to FJC staining. The slides were first immersed in a solution containing 1% NaOH in 80% ethanol for 5 minutes. They were rinsed for 2 minutes in 70% ethanol and for 2 minutes in distilled water, then incubated in 0.06% potassium permanganate solution for 10 minutes. Following a water rinse for 2 minutes, slides were transferred to the FJC staining solution and stained for 10 minutes. The proper dilution was accomplished by first making a 0.01% stock solution of FJC dye (Chemicon, Temecula, Calif., USA) in distilled water and then adding 1 ml of the stock solution to 99 ml of 0.1% acetic acid. Slides were washed three times each for 1 minute and then air-dried on a slide warmer at 50° C. for 30 minutes. After clearing in xylene and coverslipping, sections were examined under an epifluorescence microscope.

4L;C* mice [5] = assay: Relative bodyweight in 4L;C* nGD mouse model; settings: 6 mg/kg i.p. every 2 days, bodyweight normalized to age 30 days, untreated/buffer Day 52
Procedure: To assess the effect of rapamycin on nGD, rapamycin (6 mg/kg) was administered to 4L;C* mice by intraperitoneal (i.p.) injection every 2 days starting from 2-weeks of age (4L;C* rapa). […] The lifespan of the mice was monitored daily from 40 days of age until 90 days of age or until death. The Kaplan-Meier method was used to estimate survival probability and a log-rank test was used to compare the Kaplan-Meier survival curves of the four different experimental groups.
Additionally, the bodyweight the mice was measured daily from 20 days of age until 90 days of age or until death. Relative bodyweight curves were normalized by weight value of each animal at the age of 30 days.

4L;C* mice [6] = assay: GFAP immunohistochemistry for activated astrocytes in brain; settings: middle brain, brain stem, Day 55
Procedure: To visualize reactive astrocytes in nGD mice, immunohistochemistry (IHC) was performed. In brief, brains were harvested from well-perfused rapamycin treated 4L;C* mice, buffer-treated 4L;C* mice, and 4L normal mice at age of Day 55. Sagittal brain cryosections (8 um) were mounted on gelatin-coated slides, air-dried, and subjected to IHC staining using the BenchMark XT IHC/ISH staining module. For GFAP staining, the sections were incubated in buffer solution containing 0.1% trypsin for 5 minutes at room temperature. For morphometric analysis, hematoxylin-eosin co-staining was performed according to standard protocols. Endogenous peroxidase activity was quenched by incubation of the sections for 5 minutes with 3% hydrogen peroxide. Sections were incubated overnight at 4° C. in primary antibodies for GFAP rabbit polyclonal antibody. Staining was detected using biotin-labeled anti-rabbit secondary antibodies and streptavidin conjugated to horseradish peroxidase. Sections were examined with microscope using computer-assisted image analysis software.

inflammatory mediators = assay: RT-qPCR of inflammatory mediator mRNA in midbrain tissue; format: in vivo, mouse
Procedure: Vitner et al., (2012) Brain. 135 (Pt 6):1724-35; Dasgupta et al., (2015) Hum Mol Genet. 15; 24(24):7031-48. The highly activated microglia/and astrocyte are the main source of multiple inflammatory mediators in brain. […] The isolated mRNA was subjected to quantitative reverse transcription PCR (RT-qPCR) analysis using oligos directed toward inflammatory mediator genes of interest, including cytokine, chemokine, and inflammation-related receptors. Specifically, RT-qPCR analysis was performed to detect mRNA expression levels of the following genes: tumor necrosis factor (TNF)-alpha, interleukin (IL)-1-beta (IL-1β), IL-6, IL-17A, transforming growth factor beta (TGF-β), chemokine ligand (CCL) 5 (CCL5), CCL2, CCL22 chemokine (C-X-C motif) ligand 2 (CXCL2), intercellular adhesion molecule 1 (ICAM1), tumor necrosis factor receptor 1 (TNFR1), Cluster of Differentiation 86 (CD86), EGF-like module-containing mucin-like hormone receptor-like 1 (F4/80), component 5 (C5), and complement component 5a receptor 1 (C5AR1).

CO[C@H]1C[C@@H]2CC[C@@H](C)[C@@](O)(O2)C(=O)C(=O)N2CCCC[C@H]2C(=O)O[C@H]([C@H](C)C[C@@H]2CC[C@@H](O)[C@H](OC)C2)CC(=O)[C@H](C)/C=C(\C)[C@@H](O)[C@@H](OC)C(=O)[C@H](C)C[C@H](C)/C=C/C=C/C=C/1C [rapamycin]
median survival (4L;C* mice [1]): 82 days
Frequency of GFP+ cells among CD45+ (4L;C* nBMT mice): 2.87
Frequency of GFP+ cells among Lymphoid (4L;C* nBMT mice): 29.3
Frequency of GFP+ cells among Macrophage (4L;C* nBMT mice): 19.5
Frequency of GFP+ cells among Microglia (4L;C* nBMT mice): 1.56
Frequency of GFP+ cells among Myeloid (4L;C* nBMT mice): 17.4
Frequency of GFP+ cells among T Cell (4L;C* nBMT mice): 37.6
reduction of CD68+ area (4L;C* mice [2]; all brain regions except cerebellar DCN, Day 55): 53-62%
reduction of CD68 signals (4L;C* mice [2]; spinal cord): 56%
frequency of microglia (CD45intermediate CD11bhigh) (4L;C* mice [3]; buffer-treated 1.9 fold): 1.3 fold
percentage of total CD45+ cells in brain (4L;C* mice [3]; buffer-treated 2.2-): 1.4 fold
reduction of degenerating neuronal signals (FJC) (4L;C* mice [4]): 29-45%
starting age for bodyweight to show significant difference from normal controls (4L;norm) (4L;C* mice [5]): 75 days
decrease of GFAP signal (4L;C* mice [6]): 36-74%
CCL2 mRNA expression (inflammatory mediators; Day 55, buffer-treated 16.6-fold): 9 fold
CCL5 mRNA expression (inflammatory mediators; Day 55, compared to normal littermates, buffer-treated 47-fold): 23 fold
